US12570612B2, “Substituted nitrogen heterocyclic compound and anesthetic effect thereof” (priority 2019, dated 2026)
Where two headings read alike, the source gives them in different places.

What was measured:
Assay type in all cases: in vivo
[1] = test system: Sprague-Dawley rats; experiment: Pharmacological effect and adverse reactions under the equivalent dose (2ED50), Group D compounds; settings: for Righting reflex duration / Sedation duration / Onset time: 2ED50, tail vein, rats, n=8; for Adverse reaction: Convulsions / Adverse reaction: Cough, broken-winded / Adverse reaction: Euphoria / Adverse reaction: Four limbs rigidity / Adverse reaction: Red urine / Adverse reaction: Slower breathing, Tetany convulsion / Adverse reaction: Systemic stiffness, Convulsions, Opisthotonus / Adverse reaction: Tongue stretching / Adverse reaction: Tremor: equivalent dose (2 × ED50), number of rats of n = 8
Description: Evaluation index: onset time: from the completion of drug injection to the disappearance of forepaw righting reflex in rats; Duration of anesthesia: the time from the disappearance of rat forepaw righting reflex to the recovery of rat forepaw righting reflex; Recovery time of anesthesia: the time from the […] to complete recovery;

[2] = test system: Sprague-Dawley rats; experiment: animal or person; settings: rats; for ED50: LORR, up and down method, tail vein, class symbols
Description: Evaluating indicator: The end point of anesthesia: the disappearance of forepaw righting reflex (lorr) was used as the end point of anesthesia; General anesthesia effect: the disappearance of forepaw righting reflex in rats lasting for 30 seconds is taken as the index of general anesthesia effect; Anesthesia recovery index: the recovery of rat forepaw righting reflex was used as the index of anesthesia recovery.

[3] = test system: Sprague-Dawley rats; settings: tail vein
[4] = Rattus norvegicus, read-out: ED50

Row | SMILES | Righting reflex duration [1] [min] | Sedation duration [1] [min] | Onset time ([1]; unit min) [min] | Adverse reaction: Convulsions [1] | Adverse reaction: Cough, broken-winded [1] | Adverse reaction: Euphoria [1] | Adverse reaction: Four limbs rigidity [1] | Adverse reaction: Red urine [1] | Adverse reaction: Slower breathing, Tetany convulsion [1] | Adverse reaction: Systemic stiffness, Convulsions, Opisthotonus [1] | Adverse reaction: Tongue stretching [1] | Adverse reaction: Tremor [1] | ED50 [2, 4] [mg/kg] | Approximate therapeutic index [2] | Minimal lethal dose [3] [mg/kg] | ED50 [2] | Onset time ([1]; unit s) [min]
1 | CCSC(OC)(OC)C(=O)c1ccnn1[C@H](C)c1ccccc1 [Compound D2] | 5.82 ± 1.87 | 13.71 ± 3.89 | <1 | 0 | 2 | 3 | 0 | 8 | 1 | 0 | 2 | 8 | 2 to 6 | >6.6 | >10.5 |  | 
2 | COC(OC)(OC(C)C)C(=O)c1ccnn1[C@H](C)c1ccccc1 [Compound D4] | 0.98 ± 0.35 | 7.28 ± 1.56 | <1 | 0 | 0 | 0 | 0 | 8 | 0 | 0 | 0 | 0 | 2 to 6 | >5.0 | >10.1 |  | 
3 | COC(OC)(OCC(C)(C)C)C(=O)c1ccnn1[C@H](C)c1ccccc1 [Compound D6] | 1.33 ± 0.19 | 7.35 ± 1.45 | <1 | 0 | 0 | 0 | 1 | 8 | 0 | 0 | 0 | 2 | 2 to 6 | >7.3 | >12.4 |  | 
4 | C=CCOC(OC)(OC)C(=O)c1ccnn1[C@H](C)c1ccccc1 [Compound D7] | 0.55 ± 0.59 | 8.52 ± 2.29 | <1 | 0 | 0 | 0 | 1 | 8 | 0 | 0 | 1 | 1 | 0.5 to 1 | >5.4 | >3.2 |  | 
5 | COC(=O)C(=O)c1ccnn1[C@H](C)c1ccccc1 [Compound D11] |  |  |  |  |  |  |  |  |  |  |  |  | > 6 | >4.6 | >30.2 |  | 
6 | COC(OC)(OC)C(=O)c1cnnn1[C@H](C)c1ccccc1 [Compound D42] | 1.38 ± 0.15 | 3.83 ± 0.74 | <1 | 6 | 0 | 0 | 0 | 8 | 0 | 0 | 1 | 1 | 0.04 to 0.5 | >4.2 | >1.8 |  | 
7 | C#CCOCC(OC)(OC)C(=O)c1cncn1[C@H](C)c1ccccc1 [Compound D74] | 1.29 ± 0.49 | 4.78 ± 1.24 | <1 | 0 | 0 | 0 | 1 | 8 | 0 | 0 | 0 | 1 |  | >16.6 | >10.2 | +++++ (+++++ indicates that the measured ED50 is greater than 6.00 mg/kg (excluding 6.00 mg/kg)) | 
8 | C=CCOCC(OC)(OC)C(=O)c1cncn1[C@H](C)c1ccccc1 [Compound D75] | 1.59 ± 0.67 | 5.28 ± 0.68 |  | 0 | 0 | 0 | 0 | 8 | 0 | 0 | 0 | 0 |  | >5.4 | >11.2 | +++++ (+++++ indicates that the measured ED50 is greater than 6.00 mg/kg (excluding 6.00 mg/kg)) | <0.5
9 | CCOC(OC)(OC)C(=O)c1cncn1[C@H](C)c1ccccc1 [Compound D78] | 4.02 ± 1.35 | 7.29 ± 1.20 |  | 0 | 0 | 0 | 0 | 8 | 0 | 2 | 1 | 0 | 0.5 to 1 | >6.2 | >6.8 |  | <0.5
10 | CCOC(OC)(OCC)C(=O)c1cncn1[C@H](C)c1ccccc1 [Compound D79] | 1.75 ± 0.76 | 5.84 ± 1.46 |  | 6 | 0 | 0 | 0 | 8 | 0 | 0 | 0 | 1 | 0.5 to 1 | >6.4 | >2.7 |  | <0.5
11 | COC(=O)C(=O)c1cncn1[C@H](C)c1ccccc1 [Compound D80] | 1.58 ± 0.61 | 6.42 ± 1.68 |  | 0 | 0 | 0 | 4 | 8 | 0 | 0 | 0 | 0 | > 6 | >2.9 | >12.2 |  | <0.5
